Source: PMC9941179, “Preparation and activity evaluation of angiotensin-I converting enzyme inhibitory peptides from protein hydrolysate of mulberry leaf” (Frontiers in Nutrition, 2023)
Where two headings read alike, the source gives them in different places. Where no end group is shown, it is not given here.

Columns and labels:
ACE [1] = molecular target: T1, ACE (Homo sapiens, UniProt P12821); assay: ACE inhibitory activity of synthetic peptides; type: biochemical
T1 construct: purchased Tong Ren Chemical Co., Ltd. (Institute of Tongren Chemistry, Japan) ACE Kit-WST
T1 sequence (P12821 30-1306, species assumed): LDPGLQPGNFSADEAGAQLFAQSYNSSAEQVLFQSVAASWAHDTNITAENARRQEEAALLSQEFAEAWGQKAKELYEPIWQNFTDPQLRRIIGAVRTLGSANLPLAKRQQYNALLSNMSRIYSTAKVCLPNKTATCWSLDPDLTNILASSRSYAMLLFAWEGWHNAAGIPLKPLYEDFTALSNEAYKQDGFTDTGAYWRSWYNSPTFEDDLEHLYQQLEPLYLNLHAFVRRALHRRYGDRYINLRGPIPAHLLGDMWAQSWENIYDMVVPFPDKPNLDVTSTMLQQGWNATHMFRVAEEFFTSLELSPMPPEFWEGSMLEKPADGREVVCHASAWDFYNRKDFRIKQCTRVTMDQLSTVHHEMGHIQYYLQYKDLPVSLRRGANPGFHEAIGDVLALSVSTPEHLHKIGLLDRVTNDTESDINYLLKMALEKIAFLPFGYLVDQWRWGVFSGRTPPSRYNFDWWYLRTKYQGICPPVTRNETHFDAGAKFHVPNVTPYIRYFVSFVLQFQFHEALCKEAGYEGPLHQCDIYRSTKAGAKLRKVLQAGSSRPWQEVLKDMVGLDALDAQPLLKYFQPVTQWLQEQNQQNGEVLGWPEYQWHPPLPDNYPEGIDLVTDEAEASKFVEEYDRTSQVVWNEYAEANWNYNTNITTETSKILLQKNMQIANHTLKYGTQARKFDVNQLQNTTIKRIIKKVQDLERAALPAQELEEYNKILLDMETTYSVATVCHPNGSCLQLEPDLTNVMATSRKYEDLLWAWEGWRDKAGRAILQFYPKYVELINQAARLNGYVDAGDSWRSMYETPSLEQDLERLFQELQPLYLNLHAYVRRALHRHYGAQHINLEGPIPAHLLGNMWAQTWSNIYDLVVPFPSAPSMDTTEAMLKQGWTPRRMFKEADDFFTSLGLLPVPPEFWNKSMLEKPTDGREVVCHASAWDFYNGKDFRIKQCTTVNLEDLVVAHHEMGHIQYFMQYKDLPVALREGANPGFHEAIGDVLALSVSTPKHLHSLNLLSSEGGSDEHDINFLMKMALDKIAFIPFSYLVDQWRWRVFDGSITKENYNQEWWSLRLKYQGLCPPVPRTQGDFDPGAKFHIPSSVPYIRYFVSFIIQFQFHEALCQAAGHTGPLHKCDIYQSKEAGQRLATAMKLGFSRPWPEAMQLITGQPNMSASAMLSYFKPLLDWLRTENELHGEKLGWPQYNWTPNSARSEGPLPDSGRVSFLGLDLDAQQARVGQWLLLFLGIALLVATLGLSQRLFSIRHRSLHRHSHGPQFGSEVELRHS
Experimental: The ACE inhibitory activity was determined by ACE Kit-WST (Institute of Tongren Chemistry, Japan). Taking ultra-pure water as blank control, the inhibitory activity of ACE was calculated.
Pinhibitoryrate%=ABlack1-ASample/ABlack1-ABlack2×100%
Each experimental procedure was performed three times, and data were expressed as the mean ± standard deviation. Statistical analyses were conducted by one-way analysis of variance using IBM SPSS 20 (SPSS Inc., Chicago, USA). Duncan’s test was applied to determine the significance of multiple groups. The P-value <0.05 was considered statistically significant.
All the peptides were commercially synthesized and their ACE activity was determined (Figure 8).

ACE [2] = conditions: 0.05 mg/L; peptide from broccoli; ref Zhang et al. ([21]); cited from earlier work
Source text: It is of high research value to develop efficient antihypertensive products around botanical angiotensin- I converting enzyme (ACE) inhibitory peptides ([11]). Hypertension is a standard chronic disease and the most critical risk factor for cardio-cerebrovascular disease ([12]). The pathogenesis of hypertension is associated with the renin tensin system (Renin-Angiotensin System, RAS) ([13], [14]). RAS contains two key enzymes: hypertension proteinase (Renin) and ACE ([15]). Therefore, inhibiting the enzyme activity of Renin and ACE is one of the treatments for hypertension ([16], [17]). ACE b ...

[3] = synthetic peptide, IC50 used as inhibitor concentration in kinetics, read-out: IC50 (peptide concentration in Table 7) (converted)

IC50 (ACE [1]; [3]) | Substance | other results
3.34 mM | ERFNVE [ERFNVE] | 
1.4 mM | TELVLK [TELVLK] | 

Further lines, the substance ahead of its results:

Substance | IC50 (ACE [1]; [3]) | other results
FDDKLD [FDDKLD] | 0.931 mM | 
Lys - Ser - Val - Leu - Leu - Lys - Phe [peptide from broccoli digest, literature] |  | ACE inhibition rate (ACE [2]): 42.86%
MELVLK [MELVLK] |  | IC50 (ACE [1]; chemosynthetic peptide, purity greater than 95%, read-out: IC50 (converted)): 2.6 mM
